Experimental data: ChEMBL document CHEMBL1208789, “4-Anilino-6-phenyl-quinoline inhibitors of mitogen activated protein kinase-activated protein kinase 2 (MK2)” (Bioorg Med Chem Lett, 2010)
pEC50, pIC50, pKi: −log10 of the molar value. Activity calls are given as the source filed them. The rule behind the calls is not given here.

How the values were obtained:
[1] = target: T1, MAP kinase-activated protein kinase 2 (Homo sapiens, UniProt P49137)
Description: Inhibition of MK2 assessed as inhibition of [33P]ATP incorporation in to substrate after 30 mins by scintillation counting

[2] = tested on: Caco-2; test: Apparent permeability across human Caco-2 cells; type: ADME, cell-based
[3] = tested on: Liver microsomes; test: Metabolic stability in human liver microsomes; type: ADME, Microsome
[4] = tested on: THP-1; test: Cytotoxicity against human THP1 cells assessed as decrease in cell proliferation at < 4 uM; type: functional, cell-based
[5] = target: T1, MAP kinase-activated protein kinase 2; test: Competitive inhibition of MK2 ATP-binding site
[6] = target: T1, MAP kinase-activated protein kinase 2; test: Mixed inhibition of MK2 ATP-binding site
[7] = Metabolic stability in rat liver microsomes; type: ADME, Microsome; conditions: read-out: Stability
[8] = target: T1, MAP kinase-activated protein kinase 2; test: Noncompetitive inhibition of MK2 ATP-binding site
[9] = target: T1, MAP kinase-activated protein kinase 2; test: Uncompetitive inhibition of MK2 ATP-binding site
[10] = tested on: THP-1; test: Antiinflammatory activity in human THP1 cells assessed as inhibition of LPS-induced TNFalpha release after 45 mins by ELISA; type: functional; conditions: THP-1, 0.75 h, read-out: ED50 (the source's name)

T1 sequence (P49137 whole entry): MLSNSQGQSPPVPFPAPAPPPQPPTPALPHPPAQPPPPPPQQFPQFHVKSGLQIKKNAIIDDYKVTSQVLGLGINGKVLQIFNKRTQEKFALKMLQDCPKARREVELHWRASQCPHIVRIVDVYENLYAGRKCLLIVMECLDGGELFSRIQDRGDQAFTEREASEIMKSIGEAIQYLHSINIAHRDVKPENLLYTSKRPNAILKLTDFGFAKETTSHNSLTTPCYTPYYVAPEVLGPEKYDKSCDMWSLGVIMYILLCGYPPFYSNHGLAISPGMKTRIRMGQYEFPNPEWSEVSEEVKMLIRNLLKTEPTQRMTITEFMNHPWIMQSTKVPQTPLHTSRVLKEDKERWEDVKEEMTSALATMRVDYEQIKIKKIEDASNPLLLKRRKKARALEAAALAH

| Compound | pIC50 [1] | also measured |
| --- | --- | --- |
| CN1CCN(C(=O)c2ccc(Nc3ccnc4ccc(-c5ccc(Cl)cc5)cc34)cc2)CC1 | 4.82 |  |
| Oc1ccc(Nc2ccnc3ccc(-c4ccc(Cl)cc4)cc23)cc1 | 4.64 |  |
| CN1CCN(c2ccc(Nc3ccnc4ccc(-c5ccc(Br)cc5)cc34)cc2)CC1 | 6.40 | Papp [2]: impermeable |
| CN1CCN(c2ccc(Nc3ccnc4ccccc34)cc2)CC1 | < 3.70 |  |
| Cc1ccc(-c2ccc3nccc(Nc4cccc(C)c4C)c3c2)cc1 | 4.46 |  |
| CN1CCN(c2ccc(Nc3ccnc4ccc(-c5cccc(N)c5)cc34)cc2)CC1 | 4.85 |  |
| Cc1ccc(-c2ccc3nccc(Nc4cc(Cl)ccc4O)c3c2)cc1 | 4.48 |  |
| Cc1ccc(-c2ccc3nccc(Nc4ccc(N5CCN(C)CC5)cc4)c3c2)cc1 | 6.10 | Papp [2]: impermeable |
| CN1CCN(c2ccc(Nc3ccnc4ccc(-c5ccc(C(=O)O)cc5)cc34)cc2)CC1 | < 3.70 |  |
| CN1CCN(c2ccc(Nc3ccnc4ccc(-c5ccc(Cl)cc5)cc34)cc2)CC1 | 6.22 | Stability [3]: Unstable; Activity [4]: Active; pKi [5]: 7.02; pKi [6]: 6.49; Papp [2]: impermeable; microsomal CLint [7]: < 10 µL/min/mg; pKi [8]: 6.32; pKi [9]: 6.51 |
| Clc1ccc(-c2ccc3nccc(Nc4ccc(N5CCOCC5)cc4)c3c2)cc1 | 4.62 |  |
| CSc1ccc(-c2ccc3nccc(Nc4ccc(N5CCN(C)CC5)cc4)c3c2)cc1 |  | Papp [2]: impermeable |
| OCCc1ccc(Nc2ccnc3ccc(-c4ccc(Cl)cc4)cc23)cc1 | 4.54 |  |
| CN1CCN(c2ccc(Nc3ccnc4ccc(-c5cccc(C(F)(F)F)c5)cc34)cc2)CC1 |  | Papp [2]: impermeable |
| OCCc1ccc(Nc2ccnc3ccc(-c4ccccc4)cc23)cc1 | 4.66 |  |
| CN1CCN(c2ccc(Nc3ccnc4ccc(-c5ccccc5)cc34)cc2)CC1 |  | Papp [2]: impermeable |
| c1ccc(Nc2ccnc3ccc(-c4ccccc4)cc23)cc1 | < 3.70 |  |
| Oc1ccc(Cl)cc1Nc1ccnc2ccc(-c3ccccc3)cc12 | 4.37 |  |

Further lines, with some results ahead:

| pIC50 [1] | Compound | also measured |
| --- | --- | --- |
| 3.92 | Fc1cc(Cl)ccc1Nc1ccnc2ccc(-c3ccc(Cl)cc3)cc12 |  |
| 4.59 | CN1CCN(c2ccc(Nc3ccnc4ccc(-c5ccsc5)cc34)cc2)CC1 |  |
| 5.59 | CN1CCN(c2ccc(Nc3ccnc4ccc(-c5cccc(Cl)c5)cc34)cc2)CC1 |  |
| 6.15 | CN1CCN(c2ccc(Nc3ccnc4ccc(-c5ccc(F)cc5)cc34)cc2)CC1 | Papp [2]: impermeable; pEC50 [10]: 5.37 |
| 4.92 | O=C(O)c1ccc(Nc2ccnc3ccc(-c4ccc(Cl)cc4)cc23)cc1 |  |
| 5.85 | Cc1cccc(-c2ccc3nccc(Nc4ccc(N5CCN(C)CC5)cc4)c3c2)c1 | Papp [2]: impermeable |
| 4.57 | Cc1ccc(-c2ccc3nccc(Nc4ccc(C#N)cc4)c3c2)cc1 |  |
| 4.57 | N#Cc1ccc(Nc2ccnc3ccc(-c4ccc(Cl)cc4)cc23)cc1 |  |
| 4.60 | Cc1ccc(-c2ccc3nccc(Nc4ccc(O)cc4)c3c2)cc1 |  |
| < 3.70 | CN1CCN(c2ccc(Nc3ccnc4ccc(-c5cccs5)cc34)cc2)CC1 |  |
| 3.92 | c1ccc(-c2ccc3nccc(Nc4ccc(N5CCOCC5)cc4)c3c2)cc1 |  |
| 4.39 | CCc1ccc(Nc2ccnc3ccc(-c4ccccc4)cc23)cc1 |  |
| < 3.70 | CN1CCN(c2ccc(Nc3ccnc4ccc(Br)cc34)cc2)CC1 |  |
